# Assay results: patent USRE30241E, “Esters of 3-(hydroxy or hydroxymethyl)-4-hydroxyphenyl aminomethyl ketones” (Sterling Drug Inc., priority 1970, dated 1980)
# Read-outs that look alike come from different tables or passages of the source.
# Key:
# [1] = test system: carbachol- or histamine-induced bronchoconstriction; assay: Bronchodilator Test Method I, anesthetized dog, intravenous activity; assay type: in vivo; settings: Canis lupus familiaris, read-out: Bronchodilatation; for inhibition in vivo at 0.005 mg/kg: 5 mcg/kg i.v.; for inhibition in vivo at 0.02 mg/kg: 20 mcg/kg i.v.; for inhibition in vivo at 0.04 mg/kg: 40 mcg/kg i.v.
# How it was run: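 Pentobarbital-anesthetized (30 mg/kg i.v.), open-chest, artificially ventilated dogs were given i.v. carbachol (4-6 µg/kg) or histamine diphosphate (35-45 µg/kg). Test compound was given i.v. mixed with, after, or 1-10 min before the constrictor.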
# [2] = test system: carbachol- or histamine-induced bronchoconstriction; assay: Bronchodilator Test Method I, anesthetized dog, intraduodenal activity; assay type: in vivo; settings: Canis lupus familiaris, read-out: Bronchodilation; for inhibition in vivo at 0.03 mg/kg: 30 mcg/kg (salt) intraduodenal; for inhibition in vivo at 0.12 mg/kg: 120 mcg/kg (salt) intraduodenal; for inhibition in vivo at 0.02 mg/kg: 20 mcg/kg (salt) intraduodenal; for inhibition in vivo at 0.08 mg/kg: 80 mcg/kg (salt) intraduodenal; for inhibition in vivo at 0.16 mg/kg: 160 mcg/kg (salt) intraduodenal
# How it was run: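 Pentobarbital-anesthetized (30 mg/kg i.v.) open-chest dogs of 9-18 kg, artificially ventilated; airway pressure recorded via tracheal cannula transducer. Test solution injected intraduodenally; from 5 min, i.v. carbachol (4-6 μg/kg) or histamine diphosphate (35-45 μg/kg) challenges every 30-60 min gauged degree and duration of bronchodilation.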
# [3] = test system: guinea pig bronchioles constricted by carbachol; assay: Bronchodilator Test Method II, in vitro perfused guinea pig lung
# Method: In this method bronchodilator activity in vitro was determined by testing the effect of graded doses of the test compounds on guinea pig bronchioles constricted by carbachol, using the technique reported by Sollman and von Oettingen, Proc. Soc, Exp. Biol. Med., 25,692 (1928) as modified by Tainter, Pedden, and James, J. Pharm. Exp. Ther., 51, 371 (1934) and by Luduena, von Euler, Tullar, and Lands, Arch. intern. Pharmacol., III, 392 (1957).
# heart rate = assay: Cardiovascular studies: effect on the heart rate in the anesthetized dog; assay type: in vivo
# Method: (§1) The effect of a rapid intravenous injection on the heart rate the heart rate was conducted in anesthetized dogs under normal respiration. A few open-chest dogs were also tested. Increase in heart rate was measured by using an electrocardiograph attached to the dog. Readings were taken every 0.5-1 minute for the first 10 minutes and every 2-5 minutes thereafter until recovery. In some cases, several doses and more than one compound were tested alternately in the same dog. The blood pressure effect was simultaneously recorded.
# diastolic blood pressure = assay: Effect on diastolic blood pressure in the anesthetized dog; assay type: in vivo
# Method: as §1
structure (smiles),measurement,setting,value
"CC(C)NCC(O)c1ccc(O)c(O)c1 (stereo not drawn) [Ref. Cpd. II, 3,4-Dihydroxy-alpha-(isopropylaminomethyl)benzyl alcohol, reference compound]",inhibition in vivo at 0.0003 mg/kg,"[1]; 1 min, 0.3 mcg/kg i.v., 1-2 min",23%
same,inhibition in vivo at 0.0006 mg/kg,"[1]; 1 min, 0.6 mcg/kg i.v., 1-2 min",35%
same,inhibition in vivo at 0.0012 mg/kg,"[1]; 1 min, 1.2 mcg/kg i.v., 1-2 min",55%
same,inhibition in vivo at 0.03 mg/kg,"[2]; 10 min, 10 min",9%
same,inhibition in vivo at 0.12 mg/kg,"[2]; 10 min, 10 min",28%
same,inhibition in vivo at 0.03 mg/kg,"[2]; 0.5 h, 30 min",5%
same,inhibition in vivo at 0.12 mg/kg,"[2]; 0.5 h, 30 min",5%
same,inhibition in vivo at 0.03 mg/kg,"[2]; 1 h, 60 min",0%
same,inhibition in vivo at 0.12 mg/kg,"[2]; 1 h, 60 min",19%
same,"Duration, Mean",[3]; dose 0.75 mcg (base),5 min
same,Mean Maximal Increase in the Heart Rate,heart rate; 0.15 mcg/kg (salt) i.v.,26%
same,Mean Maximal Increase in the Heart Rate,heart rate; 0.3 mcg/kg (salt) i.v.,35%
same,Mean Maximal Increase in the Heart Rate,heart rate; 0.6 mcg/kg (salt) i.v.,50%
same,Mean Decrease in Diastolic Blood Pressure,diastolic blood pressure; 0.15 meg/kg (salt) i.v.,12%
same,Mean Decrease in Diastolic Blood Pressure,diastolic blood pressure; 0.3 meg/kg (salt) i.v.,32%
same,Mean Decrease in Diastolic Blood Pressure,diastolic blood pressure; 0.6 meg/kg (salt) i.v.,40%
"COc1ccc(C(=O)Oc2ccc(C(O)CNC(C)(C)C)cc2OC(C)=O)cc1 (stereo not drawn) [Example 145, 3-acetoxy-4-(p-anisoyloxy)-alpha-(tert-butylaminomethyl)benzyl alcohol methanesulfonate]",inhibition in vivo at 0.005 mg/kg,"[1]; 5 min, 5 min",65%
same,inhibition in vivo at 0.02 mg/kg,"[1]; 5 min, 5 min",87%
same,inhibition in vivo at 0.04 mg/kg,"[1]; 5 min, 5 min",98%
same,inhibition in vivo at 0.005 mg/kg,"[1]; 0.5 h, 30 min",30%
same,inhibition in vivo at 0.02 mg/kg,"[1]; 0.5 h, 30 min",45%
same,inhibition in vivo at 0.04 mg/kg,"[1]; 0.5 h, 30 min",70%
same,inhibition in vivo at 0.005 mg/kg,"[1]; 1 h, 60 min",24%
same,inhibition in vivo at 0.02 mg/kg,"[1]; 1 h, 60 min",35%
same,inhibition in vivo at 0.04 mg/kg,"[1]; 1 h, 60 min",68%
same,inhibition in vivo at 0.005 mg/kg,"[1]; 2 h, 120 min",22%
same,inhibition in vivo at 0.02 mg/kg,"[1]; 2 h, 120 min",27%
same,inhibition in vivo at 0.04 mg/kg,"[1]; 2 h, 120 min",42%
same,inhibition in vivo at 0.04 mg/kg,"[1]; 3 h, 180 min",38%
same,inhibition in vivo at 0.04 mg/kg,"[1]; 4 h, 240 min",24%
same,inhibition in vivo at 0.02 mg/kg,"[2]; 5 min, 5 min",33%
same,inhibition in vivo at 0.08 mg/kg,"[2]; 5 min, 5 min",53%
same,inhibition in vivo at 0.16 mg/kg,"[2]; 5 min, 5 min",82%
same,inhibition in vivo at 0.02 mg/kg,"[2]; 0.5 h, 30 min",32%
same,inhibition in vivo at 0.08 mg/kg,"[2]; 0.5 h, 30 min",48%
same,inhibition in vivo at 0.16 mg/kg,"[2]; 0.5 h, 30 min",81%
same,inhibition in vivo at 0.02 mg/kg,"[2]; 1 h, 60 min",32%
same,inhibition in vivo at 0.08 mg/kg,"[2]; 1 h, 60 min",45%
same,inhibition in vivo at 0.16 mg/kg,"[2]; 1 h, 60 min",81%
same,inhibition in vivo at 0.02 mg/kg,"[2]; 2 h, 120 min",33%
same,inhibition in vivo at 0.08 mg/kg,"[2]; 2 h, 120 min",49%
same,inhibition in vivo at 0.16 mg/kg,"[2]; 2 h, 120 min",63%
same,inhibition in vivo at 0.02 mg/kg,"[2]; 3 h, 180 min",29%
same,inhibition in vivo at 0.08 mg/kg,"[2]; 3 h, 180 min",32%
same,inhibition in vivo at 0.16 mg/kg,"[2]; 3 h, 180 min",48%
same,inhibition in vivo at 0.02 mg/kg,"[2]; 4 h, 240 min",25%
same,inhibition in vivo at 0.08 mg/kg,"[2]; 4 h, 240 min",30%
same,inhibition in vivo at 0.16 mg/kg,"[2]; 4 h, 240 min",32%
same,inhibition in vivo at 0.02 mg/kg,"[2]; 5 h, 300 min",23%
same,inhibition in vivo at 0.16 mg/kg,"[2]; 5 h, 300 min",37%
same,ED50,[3]; carbachol (Doryl) 1:5 million,0.25 µg (base)
same,"Duration, Mean",[3]; dose 1 mcg (base),> 72 min
same,Mean Maximal Increase in the Heart Rate,heart rate; 1.25 mcg/kg (salt) i.v.,9%
same,Mean Maximal Increase in the Heart Rate,heart rate; 5.0 mcg/kg (salt) i.v.,13%
same,Mean Maximal Increase in the Heart Rate,heart rate; 20 mcg/kg (salt) i.v.,27%
same,Mean Decrease in Diastolic Blood Pressure,diastolic blood pressure; 1.25 meg/kg (salt) i.v.,7%
same,Mean Decrease in Diastolic Blood Pressure,diastolic blood pressure; 5.0 meg/kg (salt) i.v.,12%
same,Mean Decrease in Diastolic Blood Pressure,diastolic blood pressure; 20 meg/kg (salt) i.v.,20%
